Molecular target: T1, STING (Homo sapiens, UniProt Q86WV6, G230A/H232R/R293Q/R71H)
T1 construct: host or cells: THP1-Dual KO-IFNAR2 cells
Test: STING reporter assay (luciferase) in THP1-Dual KO-IFNAR2 cells stimulated with 2′3′cGAMP
Format: cell-based
Conditions: 2′3′cGAMP 15 μM final, 24 h, luciferase reporter activity, read-out: Pharmaron, THP1_IFNAR2 STING 24 h Luci Normalized: GeoMean EC50
Description: STING pathway activation by the compounds described herein was measured using TTIP1-Dual™ cells (KO-IFNAR2).
TTIP1-Dual™ KO-IFNAR2 Cells (obtained from invivogen) were maintained in RPMI, 10% FCS, 5 ml P/S, 2 mM L-glut, 10 mM Hepes, and 1 mM sodium pyruvate. Compounds were spotted in empty 384 well tissue culture plates (Greiner 781182) by Echo for a final concentration of 0.0017-100 μM. Cells were plated into the TC plates at 40 μL per well, 2×10E6 cells/mL. For activation with STING ligand, 2′3′cGAMP (MW 718.38, obtained from Invivogen), was prepared in Optimem media.
The following solutions were prepared for each 1×384 plate: • Solution A: 2 mL Optimem with one of the following stimuli: • […] • Solution B: 2 mL Optimem with […] Lipofectamine 2000→Incubate 5 min at RT
2 mL of solution A and 2 ml Solution B was mixed and incubated for 20 min at room temperature (RT). 20 μL of transfection solution (A+B) was added on top of the plated cells, with a final 2′3′cGAMP concentration of 15 μM. The plates were then centrifuged immediately at 340 g for 1 minute, after which they were incubated at 37° C., 5% CO2, >98% humidity for 24 h. Luciferase reporter activity was then measured. EC50 values were calculated by using standard methods known in the art.
Luciferase reporter assay: 10 μL of supernatant from the assay was transferred to white 384-plate with flat bottom and squared wells. One pouch of QUANTI-Luc™ Plus was dissolved in 25 mL of water. 100 μL of QLC Stabilizer per 25 mL of QUANTI-Luc™ Plus solution was added. 50 μL of QUANTI-Luc™ Plus/QLC solution per well was then added. Luminescence was measured on a Platereader (e.g., Spectramax I3X (Molecular Devices GF3637001)).
Luciferase reporter activity was then measured. EC50 values were calculated by using standard methods known in the art.

T1 sequence (Q86WV6 whole entry R71H/G230A/H232R/R293Q): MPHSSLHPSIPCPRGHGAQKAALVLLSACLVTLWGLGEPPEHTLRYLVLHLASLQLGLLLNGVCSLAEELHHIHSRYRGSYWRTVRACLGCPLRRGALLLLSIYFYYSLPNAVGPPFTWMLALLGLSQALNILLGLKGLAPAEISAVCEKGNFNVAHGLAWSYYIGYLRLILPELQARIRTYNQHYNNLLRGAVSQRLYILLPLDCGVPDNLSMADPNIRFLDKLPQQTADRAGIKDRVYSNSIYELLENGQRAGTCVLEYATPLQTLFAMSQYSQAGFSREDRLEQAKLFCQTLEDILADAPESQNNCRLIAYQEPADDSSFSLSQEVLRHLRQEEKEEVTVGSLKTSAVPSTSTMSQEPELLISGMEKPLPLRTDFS

Molecule `O=C(Nc1c[nH]c2ccc(OCCc3ccc(C(F)(F)F)cc3)cc12)C12CC(C1)C2` [Compound 131, N-(5-(4-(trifluoromethyl)phenethoxy)-1H-indol-3-yl)bicyclo[1.1.1]pentane-1-carboxamide] has an EC50 of 200 to 1000 nM.
Molecule `O=C(Nc1c[nH]c2ccc(OCC[C@@H]3C[C@@H]4CN(CC(F)(F)F)C[C@@H]4C3)cc12)c1cccnc1` [Compound 182, N-(5-(2-((3aR,5r,6aS)-2-(2,2,2-trifluoroethyl)octahydrocyclopenta[c]pyrrol-5-yl)ethoxy)-1H-indol-3-yl)nicotinamide] has an EC50 of 200 to 1000 nM.
With `O=C(Nc1c[nH]c2ccc(O[C@H]3C[C@H](c4ccc(C(F)(F)F)cc4)C3)cc12)c1ccccn1` [Compound 228, N-{5-[(1R,3R)-3-[4-(trifluoromethyl)phenyl]cyclobutoxy]-1H-indol-3-yl}pyridine-2-carboxamide] the EC50 was 200 to 1000 nM.
`O=C(Nc1c[nH]c2ccc(O[C@H]3C[C@H](c4ccc(C(F)(F)F)cc4)C3)cc12)C12CC(F)(C1)C2` [Compound 133, 3-fluoro-N-(5-((1r,3r)-3-(4-(trifluoromethyl)phenyl)cyclobutoxy)-1H-indol-3-yl)bicyclo[1.1.1]pentane-1-carboxamide] showed an EC50 of 40 to 200 nM.
In the case of `Cn1ccnc1C(=O)Nc1c[nH]c2ccc(OCc3ccc(C(F)(F)F)cc3)cc12` [Compound 136, 1-methyl-N-(5-((4-(trifluoromethyl)benzyl)oxy)-1H-indol-3-yl)-1H-imidazole-2-carboxamide], the EC50 is reported as 200 to 1000 nM.
For `O=C(Nc1c[nH]c2ccc(O[C@H]3C[C@@H](c4ccc(C(F)(F)F)nc4)C3)cc12)c1ccccc1` [Compound 216, N-(5-(cis-3-(6-(trifluoromethyl)pyridin-3-yl)cyclobutoxy)-1H-indol-3-yl)benzamide], the EC50 was 40 to 200 nM.
In the case of `O=C(Nc1c[nH]c2ccc(OCC[C@@H]3C[C@@H]4CN(CC(F)(F)F)C[C@@H]4C3)cc12)c1ccccn1` [Compound 183, N-(5-(2-((3aR,5r,6aS)-2-(2,2,2-trifluoroethyl)octahydrocyclopenta[c]pyrrol-5-yl)ethoxy)-1H-indol-3-yl)picolinamide], the EC50 is reported as 1000 to 5000 nM.
Work on `O=C(Nc1c[nH]c2ccc(OCC[C@@H]3C[C@@H]4CN(CC(F)(F)F)C[C@@H]4C3)cc12)c1ccn[nH]1` [Compound 180, N-(5-(2-((3aR,5r,6aS)-2-(2,2,2-trifluoroethyl)octahydrocyclopenta[c]pyrrol-5-yl)ethoxy)-1H-indol-3-yl)-1H-pyrazole-5-carboxamide] yielded an EC50 of 200 to 1000 nM.
Work on `Cn1nccc1C(=O)Nc1c[nH]c2ccc(CCOc3ccc(C(F)(F)F)cc3)cc12` [Compound 103, 1-methyl-N-(5-(2-(4-(trifluoromethyl)phenoxy)ethyl)-1H-indol-3-yl)-1H-pyrazole-5-carboxamide] yielded an EC50 of 200 to 1000 nM.
`CC12CC(C(=O)Nc3c[nH]c4ccc(O[C@H]5C[C@H](c6ccc(C(F)(F)F)cc6)C5)cc34)(C1)C2` [Compound 238, 3-methyl-N-{5-[(1R,3R)-3-[4-(trifluoromethyl)phenyl]cyclobutoxy]-1H-indol-3-yl}bicyclo[1.1.1]pentane-1-carboxamide] gave an EC50 of 40 to 200 nM.
Molecule `O=C(CC1CC1)Nc1c[nH]c2ccc(OCCc3ccc(C(F)(F)F)cc3)cc12` [Compound 125, 2-cyclopropyl-N-(5-(4-(trifluoromethyl)phenethoxy)-1H-indol-3-yl)acetamide] has an EC50 of 40 to 200 nM.
With `O=C(Nc1c[nH]c2ccc(OCCc3ccc(C(F)(F)F)cc3)cc12)c1cncs1` [Compound 113, N-(5-(4-(trifluoromethyl)phenethoxy)-1H-indol-3-yl)thiazole-5-carboxamide] the EC50 was 200 to 1000 nM.
With `Cc1nnc(C(=O)Nc2c[nH]c3ccc(O[C@H]4C[C@H](c5ccc(C(F)(F)F)cc5)C4)cc23)s1` [Compound 127, 5-methyl-N-(5-((1r,3r)-3-(4-(trifluoromethyl)phenyl)cyclobutoxy)-1H-indol-3-yl)-1,3,4-thiadiazole-2-carboxamide] the EC50 was 200 to 1000 nM.
In the case of `O=C(Nc1c[nH]c2ccc(O[C@H]3C[C@@H](c4ccc(C(F)(F)F)cc4)C3)cc12)C1CC2(CC2)C1` [Compound 156, N-(5-((1s,3s)-3-(4-(trifluoromethyl)phenyl)cyclobutoxy)-1H-indol-3-yl)spiro[2.3]hexane-5-carboxamide], the EC50 is reported as 200 to 1000 nM.
`O=C(Nc1c[nH]c2ccc(O[C@H]3C[C@@H](c4ccc(C(F)(F)F)cc4)C3)cc12)C12CC(F)(C1)C2` [Compound 132, 3-fluoro-N-(5-((1s,3s)-3-(4-(trifluoromethyl)phenyl)cyclobutoxy)-1H-indol-3-yl)bicyclo[1.1.1]pentane-1-carboxamide] showed an EC50 of 200 to 1000 nM.
`O=C(Nc1c[nH]c2ccc(CCOc3ccc(C(F)(F)F)cc3)cc12)C12CC(C1)C2` [Compound 135] showed an EC50 of 200 to 1000 nM.
`O=C(Nc1c[nH]c2ccc(O[C@H]3C[C@@H](c4ccc(C(F)(F)F)cc4)C3)cc12)c1cncs1` [Compound 178, N-(5-((1s,3s)-3-(4-(trifluoromethyl)phenyl)cyclobutoxy)-1H-indol-3-yl)thiazole-5-carboxamide] showed an EC50 of 200 to 1000 nM.
`O=C(Nc1c[nH]c2ccc(O[C@H]3C[C@@H](c4ccc(C(F)(F)F)cc4)C3)cc12)c1nccs1` [Compound 175, N-(5-((1s,3s)-3-(4-(trifluoromethyl)phenyl)cyclobutoxy)-1H-indol-3-yl)thiazole-2-carboxamide] was tested, and the EC50 was 200 to 1000 nM.
In the case of `Cn1cc(C(=O)Nc2c[nH]c3ccc(OCCc4ccc(C(F)(F)F)cc4)cc23)nn1` [Compound 244, 1-methyl-N-(5-(4-(trifluoromethyl)phenethoxy)-1H-indol-3-yl)-1H-1,2,3-triazole-4-carboxamide], the EC50 is reported as 40 to 200 nM.
For `O=C(Nc1c[nH]c2ccc(OCCc3ccc(C(F)(F)F)cc3)cc12)c1nccs1` [Compound 110, N-(5-(4-(trifluoromethyl)phenethoxy)-1H-indol-3-yl)thiazole-2-carboxamide], the EC50 was 200 to 1000 nM.
For `O=C(Nc1c[nH]c2ccc(OCC[C@@H]3C[C@@H]4CN(CC(F)(F)F)C[C@@H]4C3)cc12)c1ccccc1` [Compound 224, N-(5-(2-((3aR,5r,6aS)-2-(2,2,2-trifluoroethyl)octahydrocyclopenta[c]pyrrol-5-yl)ethoxy)-1H-indol-3-yl)benzamide], the EC50 was 200 to 1000 nM.
For `Cn1cc(C(=O)Nc2c[nH]c3ccc(CCOc4ccc(C(F)(F)F)cc4)cc23)nn1` [Compound 243, 1-methyl-N-(5-(2-(4-(trifluoromethyl)phenoxy)ethyl)-1H-indol-3-yl)-1H-1,2,3-triazole-4-carboxamide], the EC50 was 200 to 1000 nM.
For `O=C(Nc1c[nH]c2ccc(OCc3ccc(C(F)(F)F)cc3)cc12)c1nccs1` [Compound 141, N-(5-((4-(trifluoromethyl)benzyl)oxy)-1H-indol-3-yl)thiazole-2-carboxamide], the EC50 was 200 to 1000 nM.
For `O=C(Nc1c[nH]c2ccc(OCc3ccc(C(F)(F)F)cc3)cc12)c1ccccc1` [Compound 218, N-(5-((4-(trifluoromethyl)benzyl)oxy)-1H-indol-3-yl)benzamide], the EC50 was 200 to 1000 nM.
For `O=C(Nc1c[nH]c2ccc(CCOc3ccc(C(F)(F)F)cc3)cc12)C1CC12CC2` (stereo not drawn) [Compound 200, N-(5-(2-(4-(trifluoromethyl)phenoxy)ethyl)-1H-indol-3-yl)spiro[2.2]pentane-1-carboxamide], the EC50 was 200 to 1000 nM.
Molecule `O=C(Nc1c[nH]c2ccc(O[C@H]3C[C@@H](c4ccc(C(F)(F)F)cc4)C3)cc12)c1ccncc1` [Compound 166, N-(5-((1s,3s)-3-(4-(trifluoromethyl)phenyl)cyclobutoxy)-1H-indol-3-yl)isonicotinamide] has an EC50 of 200 to 1000 nM.
`O=C(Nc1c[nH]c2ccc(O[C@H]3C[C@@H](c4ccc(C(F)(F)F)cc4)C3)cc12)c1ncccc1F` [Compound 174, 3-fluoro-N-(5-((1s,3s)-3-(4-(trifluoromethyl)phenyl)cyclobutoxy)-1H-indol-3-yl)picolinamide] gave an EC50 of 200 to 1000 nM.
In the case of `O=C(Nc1c[nH]c2ccc(OCC[C@@H]3C[C@@H]4CN(CC(F)(F)F)C[C@@H]4C3)cc12)C1CC2(CC2)C1` [Compound 222, N-(5-{2-[(3aR,5R,6aS)-2-(2,2,2-trifluoroethyl)octahydrocyclopenta[c]pyrrol-5-yl]ethoxy}-1H-indol-3-yl)spiro[2.3]hexane-5-carboxamide], the EC50 is reported as 200 to 1000 nM.
Work on `O=C(Nc1c[nH]c2ccc(CCOc3ccc(C(F)(F)F)cc3)cc12)C1CC2(CC2)C1` [Compound 198, N-(5-(2-(4-(trifluoromethyl)phenoxy)ethyl)-1H-indol-3-yl)spiro[2.3]hexane-5-carboxamide] yielded an EC50 of 200 to 1000 nM.
`O=C(CC1CC1)Nc1c[nH]c2ccc(OCc3ccc(C(F)(F)F)cc3)cc12` [Compound 150, 2-cyclopropyl-N-(5-((4-(trifluoromethyl)benzyl)oxy)-1H-indol-3-yl)acetamide] showed an EC50 of 200 to 1000 nM.

From patent US20230250060A1 (IFM Due, Inc., priority 2022, published 2023)
